Measurements as given in PubChem BioAssay AID342 (DTP/NCI, 2004).
“And” between values parts separate entries of the source, which are not always exact repeats. Equal entries are not always repeated.

System: Swiss mice, Sarcoma 180 sc, mean tumor weight T/C
Assay: NCI In Vivo Anticancer Drug Screen. Data for tumor model Sarcoma 180 (subcutaneous) in Swiss mice
Conditions: endpoint: mean tumor weight, higher = larger tumour
Method in brief: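 Mice bearing transplanted tumors were treated with compound, and survival or tumor size was measured. Values are expressed as the treated-group measurement (T) divided by the vehicle-treated control measurement (C).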

[1] = dose: 18.0 mg/kg/injection, schedule: Q01DX007 (ip), vehicle: carboxymethylcellulose (CMC)
[2] = dose: 50.0 mg/kg/injection, schedule: Q01DX007 (ip), vehicle: carboxymethylcellulose (CMC)
[3] = dose: 5.0 mg/kg/injection, schedule: Q01DX007 (ip), vehicle: carboxymethylcellulose (CMC)
[4] = dose: 32.0 mg/kg/injection, schedule: Q01DX007 (ip), vehicle: carboxymethylcellulose (CMC)
[5] = dose: 8.0 mg/kg/injection, schedule: Q01DX007 (ip), vehicle: carboxymethylcellulose (CMC)

CC(C)COC(=O)C1(N)CCCC1
T/C (dose: 90.0 mg/kg/injection, schedule: Q01DX007 (ip), vehicle: carboxymethylcellulose (CMC)): 80 % of control | T/C (dose: 135.0 mg/kg/injection, schedule: Q01DX007 (ip), vehicle: carboxymethylcellulose (CMC)): 44 % of control | T/C (dose: 188.0 mg/kg/injection, schedule: Q01DX007 (ip), vehicle: saline): 14 % of control | T/C (dose: 202.0 mg/kg/injection, schedule: Q01DX007 (ip), vehicle: carboxymethylcellulose (CMC)): 49 % of control | T/C (dose: 303.0 mg/kg/injection, schedule: Q01DX007 (ip), vehicle: carboxymethylcellulose (CMC)): 18 % of control

C=CCCCCCCCCC(=O)O
T/C (dose: 7.8 mg/kg/injection, schedule: Q01DX007 (ip), vehicle: saline): 109 % of control | T/C (dose: 15.6 mg/kg/injection, schedule: Q01DX007 (ip), vehicle: saline): 118 % of control | T/C (dose: 31.3 mg/kg/injection, schedule: Q01DX007 (ip), vehicle: saline): 122 % of control | T/C (dose: 125.0 mg/kg/injection, schedule: Q01DX007 (ip), vehicle: saline): 90 % of control

O=CNc1c(Br)cc2c(c1Br)Cc1cc([N+](=O)[O-])ccc1-2
T/C (dose: 7.0 mg/kg/injection, schedule: Q01DX007 (ip), vehicle: carboxymethylcellulose (CMC)): 52 % of control | T/C (dose: 11.0 mg/kg/injection, schedule: Q01DX007 (ip), vehicle: carboxymethylcellulose (CMC)): 45 % of control | T/C (dose: 17.0 mg/kg/injection, schedule: Q01DX007 (ip), vehicle: carboxymethylcellulose (CMC)): 40 % of control | T/C (dose: 26.0 mg/kg/injection, schedule: Q01DX007 (ip), vehicle: carboxymethylcellulose (CMC)): 22 % of control

CC(/C=N\N=C(N)N)=N/N=C(N)N
T/C (dose: 42.1 mg/kg/injection, schedule: Q01DX007 (ip), vehicle: carboxymethylcellulose (CMC)): 113 % of control

CC(=O)C(CCC(=O)O)(CCC(=O)O)c1ccccc1
T/C (dose: 15.0 mg/kg/injection, schedule: Q#A X014 (ip), vehicle: other): 83 % of control | T/C (dose: 30.0 mg/kg/injection, schedule: Q#A X014 (ip), vehicle: other): 106 % of control | T/C (dose: 60.0 mg/kg/injection, schedule: Q#A X014 (ip), vehicle: other): 98 % of control | T/C (dose: 120.0 mg/kg/injection, schedule: Q#A X014 (ip), vehicle: other): 112 % of control

C1OC1C1CO1 (stereo unspecified)
T/C (dose: 4.5 mg/kg/injection, schedule: Q01DX007 (ip), vehicle: carboxymethylcellulose (CMC)): 68 % of control | T/C (dose: 4.63 mg/kg/injection, schedule: Q01DX007 (ip), vehicle: carboxymethylcellulose (CMC)): 99 % of control | T/C (dose: 9.0 mg/kg/injection, schedule: Q01DX007 (ip), vehicle: carboxymethylcellulose (CMC)): 97 % of control | T/C (dose: 9.25 mg/kg/injection, schedule: Q01DX007 (ip), vehicle: carboxymethylcellulose (CMC)): 74 % of control | T/C (dose: 13.76 mg/kg/injection, schedule: Q01DX007 (ip), vehicle: carboxymethylcellulose (CMC)): 80 % of control | T/C (dose: 17.2 mg/kg/injection, schedule: Q01DX007 (ip), vehicle: carboxymethylcellulose (CMC)): 107 % of control | T/C [1]: 53 % of control | T/C (dose: 18.5 mg/kg/injection, schedule: Q01DX007 (ip), vehicle: carboxymethylcellulose (CMC)): 71 % of control | T/C (dose: 22.93 mg/kg/injection, schedule: Q01DX007 (ip), vehicle: carboxymethylcellulose (CMC)): 82 % of control | T/C (dose: 34.4 mg/kg/injection, schedule: Q01DX007 (ip), vehicle: carboxymethylcellulose (CMC)): 80 % of control

C[C@]12CC[C@H](O)C[C@H]1CC[C@@H]1[C@@H]2CC[C@]2(C)[C@@H](C3=CC(=O)OC3)[C@@H](O)C[C@]12O
T/C (dose: 3.0 mg/kg/injection, schedule: Q01DX007 (sc), vehicle: steriod suspending solution): 78 % of control | T/C (dose: 10.0 mg/kg/injection, schedule: Q01DX007 (sc), vehicle: steriod suspending solution): 64 % of control | T/C (dose: 25.0 mg/kg/injection, schedule: Q01DX007 (sc), vehicle: steriod suspending solution): 50 % of control | T/C (dose: 50.0 mg/kg/injection, schedule: Q01DX007 (sc), vehicle: steriod suspending solution): 70 % of control

CC(=O)[C@H]1CC[C@H]2[C@@H]3C[C@H](C)C4=CC(=O)CC[C@]4(C)[C@H]3C(=O)C[C@]12C
T/C (dose: 25.0 mg/kg/injection, schedule: Q#A X014 (oral), vehicle: steriod suspending solution): 72 % of control | T/C (dose: 62.5 mg/kg/injection, schedule: Q#A X014 (oral), vehicle: steriod suspending solution): 55 % of control | T/C (dose: 110.0 mg/kg/injection, schedule: Q#A X014 (oral), vehicle: steriod suspending solution): 86 % of control

c1ccc2cc3c(cc2c1)Cn1c-3nc2ccccc21
T/C (dose: 25.0 mg/kg/injection, schedule: Q01DX007 (ip), vehicle: carboxymethylcellulose (CMC)): 76 % of control | T/C [2]: 86 % of control | T/C (dose: 200.0 mg/kg/injection, schedule: Q01DX007 (ip), vehicle: carboxymethylcellulose (CMC)): 53 % of control and 57 % of control | T/C (dose: 400.0 mg/kg/injection, schedule: Q01DX007 (ip), vehicle: carboxymethylcellulose (CMC)): 54 % of control | T/C (dose: 500.0 mg/kg/injection, schedule: Q01DX007 (ip), vehicle: carboxymethylcellulose (CMC)): 27 % of control and 34 % of control | T/C (dose: 800.0 mg/kg/injection, schedule: Q01DX007 (ip), vehicle: carboxymethylcellulose (CMC)): 38 % of control

O=[N+]([O-])c1ccc(O)c([N+](=O)[O-])c1
T/C (dose: 1325.0 micrograms/kg/injection, schedule: Q01DX007 (ip), vehicle: carboxymethylcellulose (CMC)): 69 % of control | T/C (dose: 2650.0 micrograms/kg/injection, schedule: Q01DX007 (ip), vehicle: carboxymethylcellulose (CMC)): 96 % of control | T/C (dose: 4300.0 micrograms/kg/injection, schedule: Q01DX007 (ip), vehicle: carboxymethylcellulose (CMC)): 71 % of control | T/C (dose: 6625.0 micrograms/kg/injection, schedule: Q01DX007 (ip), vehicle: carboxymethylcellulose (CMC)): 79 % of control

O=C(O)O.[Cd]
T/C [3]: 69 % of control

NC(=O)NO
T/C (dose: 16.0 mg/kg/injection, schedule: Q01DX007 (ip), vehicle: carboxymethylcellulose (CMC)): 89 % of control | T/C [4]: 111 % of control | T/C (dose: 64.0 mg/kg/injection, schedule: Q01DX007 (ip), vehicle: carboxymethylcellulose (CMC)): 112 % of control | T/C (dose: 128.0 mg/kg/injection, schedule: Q01DX007 (ip), vehicle: carboxymethylcellulose (CMC)): 69 % of control

Cc1cc(N(CCCl)CCCl)ccc1N=Nc1ccccc1C(=O)O
T/C (dose: 5.3 mg/kg/injection, schedule: Q01DX007 (ip), vehicle: carboxymethylcellulose (CMC)): 33 % of control | T/C [5]: 50 % of control | T/C (dose: 12.0 mg/kg/injection, schedule: Q01DX007 (ip), vehicle: carboxymethylcellulose (CMC)): 61 % of control | T/C [1]: 27 % of control

CCCCNc1ncnc2c1cnn2C
T/C (dose: 4.0 mg/kg/injection, schedule: Q01DX007 (ip), vehicle: carboxymethylcellulose (CMC)): 124 % of control | T/C [5]: 107 % of control and 121 % of control | T/C (dose: 31.0 mg/kg/injection, schedule: Q01DX007 (ip), vehicle: carboxymethylcellulose (CMC)): 92 % of control | T/C [4]: 77 % of control | T/C (dose: 62.0 mg/kg/injection, schedule: Q01DX007 (ip), vehicle: carboxymethylcellulose (CMC)): 112 % of control

O=CNc1c(Cl)c(Cl)c2c(c1Cl)Cc1cc(Cl)ccc1-2
T/C [3]: 70 % of control | T/C (dose: 15.0 mg/kg/injection, schedule: Q01DX007 (ip), vehicle: carboxymethylcellulose (CMC)): 60 % of control | T/C (dose: 30.0 mg/kg/injection, schedule: Q01DX007 (ip), vehicle: carboxymethylcellulose (CMC)): 34 % of control | T/C (dose: 49.0 mg/kg/injection, schedule: Q01DX007 (ip), vehicle: carboxymethylcellulose (CMC)): 63 % of control | T/C (dose: 73.0 mg/kg/injection, schedule: Q01DX007 (ip), vehicle: carboxymethylcellulose (CMC)): 64 % of control | T/C (dose: 110.0 mg/kg/injection, schedule: Q01DX007 (ip), vehicle: carboxymethylcellulose (CMC)): 51 % of control | T/C (dose: 165.0 mg/kg/injection, schedule: Q01DX007 (ip), vehicle: carboxymethylcellulose (CMC)): 5 % of control

Cc1ccc2[nH]c(C)c(CCN)c2c1
T/C (dose: 44.0 mg/kg/injection, schedule: Q01DX007 (ip), vehicle: water): 95 % of control | T/C (dose: 66.0 mg/kg/injection, schedule: Q01DX007 (ip), vehicle: water): 119 % of control | T/C (dose: 100.0 mg/kg/injection, schedule: Q01DX007 (ip), vehicle: water): 97 % of control

COc1cc([C@@H]2c3cc4c(cc3[C@H](O)[C@H]3COC(=O)[C@H]23)OCO4)cc(OC)c1OC
T/C (dose: 0.45 mg/kg/injection, schedule: Q01DX007 (ip), vehicle: carboxymethylcellulose (CMC)): 90 % of control | T/C (dose: 0.9 mg/kg/injection, schedule: Q01DX007 (ip), vehicle: carboxymethylcellulose (CMC)): 92 % of control | T/C (dose: 175.0 micrograms/kg/injection, schedule: Q01DX007 (ip), vehicle: carboxymethylcellulose (CMC)): 88 % of control | T/C (dose: 350.0 micrograms/kg/injection, schedule: Q01DX007 (ip), vehicle: carboxymethylcellulose (CMC)): 77 % of control | T/C (dose: 1400.0 micrograms/kg/injection, schedule: Q01DX007 (ip), vehicle: carboxymethylcellulose (CMC)): 71 % of control

CCn1cnc2c(=S)nc[nH]c21
T/C [2]: 55 % of control | T/C (dose: 100.0 mg/kg/injection, schedule: Q01DX007 (ip), vehicle: carboxymethylcellulose (CMC)): 25 % of control
